What was measured:
[1] = Bidirectional transport across Caco-2 cell monolayers; conditions: human, Caco-2, pH 7.4
Method: (§1) To investigate the intestinal absorption and transport properties of the three DiCQAs and three PGAs, 14-day cultured Caco-2 monolayer cells were used for the bidirectional transport study.
(§2) It was cultured in Dulbecco’s Modified Eagle Medium (DMEM medium, Hyclone, Logan, UT, USA) containing high glucose (4.5 g/L) plus 10% fetal bovine serum (Biological Industries, Beit Haemek, Israel), 1% L-glutamine and 1% penicillin-streptomycin (Hyclone) at 37 °C, 5% CO2 with constant humidity controlled environment. The medium was replaced three times a week during cell growth and differentiation. Cells used in this study were between passages 25 and 40.
(§3) After the cells in the flask grew to 90%–100% confluency, cells were trypsinized and seeded on 12 mm transwells with 0.4 µm pore polyester membrane insert (product #3460, Corning Inc., Corning, NY, USA) at a density 2 × 10^5 cells/mL. Culture medium (0.5 mL and 1.5 mL, respectively) was added into the space between the transwell and the plate. The culture was incubated at 37 °C under 5% CO2 atmosphere and the medium was changed fresh every 48 h. The transepithelial electrical resistance (TEER) was measured with Millicell-ERS epithelial Voltohmmeter (Millipore, Bedford, MA, USA), which was reflected to the tightness of intercellular junctions and only cells with TEER (in Ω/cm^2) >300 Ω/cm^2 (at 14 day) were used for permeability study.
(§4) Before conducting the permeation test, the trasnswell insert was emerged and rinsed in 25 mM HEPES (pH 7.4 Hank’s Balanced Salt Solution, HBSS) and rinsed twice at 37 °C under 5% CO2 atmosphere, each time for 30 min. The paracellular marker molecule mannitol (low permeability), propranolol (highly permeability), and EM fraction (1 mg/mL) were separately dissolved in DMSO and diluted with HBSS to final concentrations of 50 μM, 10 μM, and 1 mg/mL (at non-cytotoxic concentration), respectively. The solutions were respectively transferred into the apical and basolateral zones of the transwell insert with the other side filled up with HBSS. The same pH (7.4) was used both in apical-to-basolateral (A→B) and basolateral-to-apical (B→A) transport directions during each experiment. The whole apparatus was incubated at 37 °C under 5% CO2 atmosphere and the permeation was examined at time point 5, 15, 30, and 60 min, respectively. Permeates obtained from various direction were analyzed with HPLC and LC-MS according to the aforementioned method. The apparent permeability coefficients (Papp, cm/s) and the efflux ratio were calculated according to the literature: Papp = (V/A × C0) × (dQ/dt) where V is the volume of receiver part (0.5 mL and/or 1.5 mL).
(§5) A is the surface area of the cell monolayer (1.1 cm^2).
(§6) C0 is the initial concentration of the extract (1 mg/mL).
(§7) dQ/dt is the cumulative transport rate (mg/mL/min). Efflux ratio = Papp,B→A/Papp,A→B

Caco-2 cells = assay: as above; conditions: pH 7.4, up to 60 min; for Papp, apical to basolateral flux: A→B, compounds tested within EM 1 mg/mL, mannitol 50 μM, 14-day monolayers
Method: as §1, §2, §3, §4, §5, §6, §7

db/db mice = test system: db/db mice; design: method as in doi:10.1016/j.jfca.2010.03.025; conditions: i.p., compared to the other two polyacetylenic glucosides; cited from earlier work

With `CC#CC#CC#C/C=C/CCC(CCO)O[C@@H]1O[C@H](CO)[C@@H](O)[C@H](O)[C@H]1O` (stereo partly drawn) [PGA 6, 3-β-D-glucopyranosyloxy-1-hydroxy-6(E)-tetradecene-8,10,12-triyne] the efflux ratio at 60 min, 1 mg/mL [1] was 6.03 and the “Papp, apical to basolateral flux” value (Caco-2 cells) was “higher than the paracellular transport marker mannitol”.

With `O=C(/C=C/c1ccc(O)c(O)c1)O[C@H]1[C@H](O)C[C@](O)(C(=O)O)C[C@H]1OC(=O)/C=C/c1ccc(O)c(O)c1` [DiCQA 3, 4,5-di-O-caffeoylquinic acid] the “Papp, apical to basolateral flux” value (Caco-2 cells) was “higher than the paracellular transport marker mannitol”.

With `O=C(/C=C/c1ccc(O)c(O)c1)O[C@@H]1[C@@H](OC(=O)/C=C/c2ccc(O)c(O)c2)C[C@@](O)(C(=O)O)C[C@@H]1O` [DiCQA 1, 3,4-di-O-caffeoylquinic acid] the “Papp, apical to basolateral flux” value (Caco-2 cells) was “higher than the paracellular transport marker mannitol”.

For `CC#CC#CC#CC#CCCC(CO)O[C@@H]1O[C@H](CO)[C@@H](O)[C@H](O)[C@H]1O` (stereo partly drawn) [PGA 5, 2-β-D-glucopyranosyloxy-1-hydroxytrideca-5,7,9,11-tetrayne], the “Papp, apical to basolateral flux” value (Caco-2 cells) is given as “lower than the Papp for mannitol”, the “Papp, basolateral to apical flux” value (Caco-2 cells; B→A, compound within EM 1 mg/mL) is given as “closed to that of propranolol” and the “Increasing serum insulin, reducing blood glucose levels and glycosylated HbA1c levels” value (db/db mice) is given as “most effective compound”.

For `CC#CC#CC#C/C=C/CCC(CO)O[C@@H]1O[C@H](CO)[C@@H](O)[C@H](O)[C@H]1O` (stereo partly drawn) [PGA 4, 2-β-D-glucopyranosyloxy-1-hydroxy-5(E)-tridecene-7,9,11-triyne], the efflux ratio at 60 min, 1 mg/mL [1] was 32.1 and the “Papp, apical to basolateral flux” value (Caco-2 cells) was “higher than the paracellular transport marker mannitol”.

With `OC[C@@H](O)[C@@H](O)[C@H](O)[C@H](O)CO` [mannitol, reference compound] the Papp A→B at 60 min, 50 μM [1] was 0.43 ± 0.1 ×10⁻⁶ cm/s.

`CC(C)NCC(O)COc1cccc2ccccc12` (centres unmarked) [propranolol, reference compound] showed a Papp at 60 min, 10 μM [1] of 39.4 ± 4.12 ×10⁻⁶ cm/s.

— paper PMC6269719, “Extraction of Antioxidant Components from Bidens pilosa Flowers and Their Uptake by Human Intestinal Caco-2 Cells” (Molecules, 2013)
